Values quoted from earlier work as cited in patent US20130267526A1, “HETEROCYCLIC COMPOUNDS AND THEIR USES” (Amgen, Inc., priority 2010, published 2013).

What was measured:
[1] = test system: ovalbumin-induced airway inflammation
[2] = test system: passive cutaneous anaphylaxis (PCA); conditions: absence of functional delta (IC 87114 and p110δ D910A mice)
p110δ = molecular target: T1, p110δ (Homo sapiens, UniProt O00329)
T1 sequence (O00329 1-1044): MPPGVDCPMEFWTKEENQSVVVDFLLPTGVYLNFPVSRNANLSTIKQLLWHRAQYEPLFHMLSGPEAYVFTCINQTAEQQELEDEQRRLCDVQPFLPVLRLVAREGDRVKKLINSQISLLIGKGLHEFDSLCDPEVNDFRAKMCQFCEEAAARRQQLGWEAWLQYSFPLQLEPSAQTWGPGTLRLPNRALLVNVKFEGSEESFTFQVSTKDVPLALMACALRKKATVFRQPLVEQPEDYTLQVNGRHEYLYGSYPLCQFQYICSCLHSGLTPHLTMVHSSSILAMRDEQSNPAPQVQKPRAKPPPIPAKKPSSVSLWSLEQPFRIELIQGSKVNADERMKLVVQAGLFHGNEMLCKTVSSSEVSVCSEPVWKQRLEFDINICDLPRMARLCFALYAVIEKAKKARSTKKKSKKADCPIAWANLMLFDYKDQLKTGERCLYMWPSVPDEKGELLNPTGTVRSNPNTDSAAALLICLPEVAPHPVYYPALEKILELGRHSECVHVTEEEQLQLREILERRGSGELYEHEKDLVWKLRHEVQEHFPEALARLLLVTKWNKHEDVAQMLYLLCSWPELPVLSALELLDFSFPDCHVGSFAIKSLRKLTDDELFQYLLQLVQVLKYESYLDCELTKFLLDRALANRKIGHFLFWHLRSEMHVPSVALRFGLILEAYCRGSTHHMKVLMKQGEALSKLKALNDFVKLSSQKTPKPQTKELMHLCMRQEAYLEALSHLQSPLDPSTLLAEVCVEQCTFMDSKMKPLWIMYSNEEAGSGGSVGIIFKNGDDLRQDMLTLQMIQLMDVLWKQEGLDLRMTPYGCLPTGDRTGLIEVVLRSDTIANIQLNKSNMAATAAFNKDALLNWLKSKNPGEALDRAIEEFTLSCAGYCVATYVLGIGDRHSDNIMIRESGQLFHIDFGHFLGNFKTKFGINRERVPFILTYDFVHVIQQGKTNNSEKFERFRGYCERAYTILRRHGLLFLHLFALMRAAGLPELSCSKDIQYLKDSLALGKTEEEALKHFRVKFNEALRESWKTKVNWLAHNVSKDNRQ

[3] = test system: model of systemic lupus erythematosis; conditions: in vivo
[4] = test system: mouse model of rheumatoid arthritis; conditions: in vivo

Structure (SMILES)	inflammation and disease in murine asthma model [1]	passive cutaneous anaphylaxis (PCA) [2]	inhibition of p110δ (p110δ)	activity against any protein kinases tested (protein kinases)	onset of disease in a model of systemic lupus erythematosis [3]	efficacy in a mouse model of rheumatoid arthritis [4]
Cc1ccccc1-n1c(Cn2cnc3c(N)ncnc32)nc2cccc(C)c2c1=O [IC87114]	significantly ameliorate	significantly reduced	high nanomolar range (triple digit)	no activity		
O=C1NC(=O)/C(=C\c2ccc3nccnc3c2)S1 [AS 605240]					delay onset of disease	efficacious
